Measurements from PMC12297039, “Design, Synthesis, and Evaluation of Cytotoxic Effects of Functional Fatty Acid Derivatives as Potential Antineoplastic Agents for Breast Cancer” (Iranian Journal of Pharmaceutical Research : IJPR, 2025).
Like-named read-outs stand apart in the source and are kept apart here.

What was measured:
MCF-7 cells [1] = assay: Annexin V-FITC/PI flow cytometry, apoptosis and necrosis; format: cell-based, human; details: MCF-7, annexin V-FITC/PI staining, ½x, x, 2x EC50
Description: Apoptosis and necrosis were measured using a dead cell apoptosis kit with annexin V-FITC and propidium iodide (PI) (ApoFlowExFITC, Exbio, Czech Republic) according to the manufacturer’s protocol. The MCF-7 cells were cultured as described in the cell culture section (section 3.3.1). […] Cells were collected through trypsinization, rinsed twice with PBS, and then resuspended in 500 μL of binding buffer. The cell suspensions were subsequently incubated with 5 μL of annexin V-FITC and 5 μL of PI for 10 minutes at room temperature in a dark environment. The cells were then assessed immediately using flow cytometry, and the data were analyzed using FlowJo version 7.6.5 (Tree Star, Inc., Ashland, USA).
A distinguishing characteristic of cells undergoing apoptosis is the translocation of phosphatidylserine from the inner to the outer layers of the plasma membrane, which can be identified by annexin V in this assay. The PI identifies necrotic cells with compromised plasma membranes ([39]-[44]).

MCF-7 cells [2] = assay: MTT cytotoxicity assay on breast adenocarcinoma (MCF-7) cells; format: cell-based, human; details: for EC50: read-out: MCF-7 EC50 (μM) ± SE; for Selectivity Index (SI), MCF-7: ratio of EC50 against fibroblasts to EC50 against MCF-7 cells
Description: (§1) The cytotoxic effects of DHA and LA derivatives against the breast cancer cell line (MCF-7) were assessed, with results compared to human dermal fibroblasts (HDFs) as a normal cell line. Both cell lines were provided by the Pasteur Institute of Iran (IPI). The cells were cultured in RPMI medium containing 10% fetal bovine serum (FBS) and 1% antibiotic solution (comprising 10,000 units of penicillin and 10 mg streptomycin in 0.9% NaCl). The cultures were incubated at 37°C with 5% CO2.
(§2) The MTT assay was used as a standard method for evaluating the inhibitory effect of compounds. This colorimetric assay is based on the conversion of yellow MTT (3-[4,5-dimethylthiazol-2-yl]-2,5-diphenyltetrazolium bromide) to purple formazan crystals via enzymatic reduction by NAD(P)H-dependent oxidoreductase enzymes in metabolically active cells ([35]). According to a previously reported method, after 24 hours of incubation of cells (15,000 cells per well), six different concentrations of D1-D8 (6.25 to 200 μM) and L1-L8 (3.125 to 100 μM) were added to the wells, with each concentration performed in triplicate. After 48 hours of incubation, the culture medium was completely removed from the wells. MTT solution, prepared at a concentration of 0.5 mg/mL in phosphate-buffered saline (PBS), was added (100 µL per well) and incubated for 4 hours to allow metabolically active cells to reduce the MTT to insoluble formazan crystals. Subsequently, 100 µL of solubilizing solvent containing 16% sodium dodecyl sulfate (SDS) was added to each well, followed by an additional 2 hours of incubation ([36]). Cell viability was determined using a Cell Imaging Multi-Mode Microplate Reader (Biotek, Cytation 3, USA), measuring absorbance at 570 nm ([37], [38]).

[3] = system: human dermal fibroblasts (HDFs); assay: MTT cytotoxicity assay on normal human dermal fibroblasts (HDFs); format: cell-based; details: read-out: HDF EC50 (μM) ± SE
Description: as §1, §2

MCF-7 breast cancer cell = system: MCF-7 breast cancer cell; design: method as in PMID 31652764; details: MCF-7, MTT assay, 150 μM DHA; cited from earlier work
[4] = Homo sapiens, MCF7, MTT, 48 h incubation, MCF-7
[5] = Fibroblast, MTT, 48 h incubation, normal human dermal fibroblasts

Compound	EC50 (MCF-7 cells [2]; [4])	EC50 [3, 5]	other results
4-((4Z,7Z,10Z,13Z,16Z,19Z)-docosa-4,7,10,13,16,19-hexaen-1-yl)morpholine [Compound D3]	–	–	mode of cell death (MCF-7 cells [1]): predominantly induced apoptosis rather than necrosis; EC50 (MCF-7 cells [2]; MTT, 48 h incubation, MCF-7): 16 ± 2.89 µM; EC50 ([3]; MTT, 48 h incubation, normal human dermal fibroblasts): > 100 µM
CC/C=C\C/C=C\C/C=C\C/C=C\C/C=C\C/C=C\CCC(=O)NCCO [Compound D1, (4Z,7Z,10Z,13Z,16Z,19Z)-N-(2-hydroxyethyl) docosa-4,7,10,13,16,19-hexaenamide]	–	–	EC50 (MCF-7 cells [2]; Homo sapiens, MCF7, 48 h): ≥ 100 µM; EC50 ([3]; Homo sapiens, Fibroblast, 48 h): ≥ 100 µM
CC/C=C\C/C=C\C/C=C\C/C=C\C/C=C\C/C=C\CCC(=O)N(CCO)CCO [Compound D2, (4Z,7Z,10Z,13Z,16Z,19Z)-N,N-bis(2-hydroxyethyl)docosa-4,7,10,13,16,19-hexaenamide]	≥ 100 µM	> 100 µM	–
CC/C=C\C/C=C\C/C=C\C/C=C\C/C=C\C/C=C\CCC(=O)Nc1ccc(O)cc1 [Compound D4, (4Z,7Z,10Z,13Z,16Z,19Z)-N-(4-hydroxyphenyl)docosa-4,7,10,13,16,19-hexaenamide]	74.3 ± 1.41 µM	> 100 µM	–
CC/C=C\C/C=C\C/C=C\C/C=C\C/C=C\C/C=C\CCC(=O)NCCc1ccccc1 [Compound D5, (4Z,7Z,10Z,13Z,16Z,19Z)-N-phenethyldocosa-4,7,10,13,16,19-hexaenamide]	≥ 100 µM	–	–
CC/C=C\C/C=C\C/C=C\C/C=C\C/C=C\C/C=C\CCC(=O)N1CCN(C)CC1 [Compound D6, (4Z,7Z,10Z,13Z,16Z,19Z)-1-(4-methylpiperazin-1-yl) docosa-4,7,10,13,16,19-hexaen-1-one]	≥ 100 µM	–	–
CC/C=C\C/C=C\C/C=C\C/C=C\C/C=C\C/C=C\CCC(=O)NCC(O)CO (stereo not shown) [Compound D7, (4Z,7Z,10Z,13Z,16Z,19Z)-N-(2,3-dihydroxypropyl) docosa-4,7,10,13,16,19-hexaenamide]	98.6 ± 1.19 µM	> 100 µM	–
CC/C=C\C/C=C\C/C=C\C/C=C\C/C=C\C/C=C\CCC(=O)NCCN [Compound D8, (4Z,7Z,10Z,13Z,16Z,19Z)-N-(2-aminoethyl) docosa-4,7,10,13,16,19-hexaenamide]	86 ± 5.41 µM	> 100 µM	–
CCCCC/C=C\C/C=C\CCCCCCCC(=O)NCCO [Compound L1, (9Z,12Z)-N-(2-hydroxyethyl) octadeca-9,12-dienamide]	≥ 100 µM	–	–
CCCCC/C=C\C/C=C\CCCCCCCC(=O)N(CCO)CCO [Compound L2, (9Z,12Z)-N,N-bis(2-hydroxyethyl) octadeca-9,12-dienamide]	≥ 100 µM	–	–
CCCCC/C=C\C/C=C\CCCCCCCC(=O)N1CCOCC1 [Compound L3, (9Z,12Z)-1-morpholinooctadeca-9,12-dien-1-one]	24.6 ± 1.81 µM	≥ 100 µM	mode of cell death (MCF-7 cells [1]): predominantly induced apoptosis rather than necrosis; Selectivity Index (SI), MCF-7 (MCF-7 cells [2]): 6.88
CCCCC/C=C\C/C=C\CCCCCCCC(=O)Nc1ccc(O)cc1 [Compound L4, (9Z,12Z)-N-(4-hydroxyphenyl) octadeca-9,12-dienamide]	52.4 ± 6.79 µM	≥ 100 µM	Selectivity Index (SI), MCF-7 (MCF-7 cells [2]): 3.53
CCCCC/C=C\C/C=C\CCCCCCCC(=O)NCC(O)CO (stereo not shown) [Compound L7, (9Z,12Z)-N-(2,3-dihydroxypropyl) octadeca-9,12-dienamide]	19.2 ± 2.93 µM	64.8 ± 5.72 µM	mode of cell death (MCF-7 cells [1]): predominantly induced apoptosis rather than necrosis; Selectivity Index (SI), MCF-7 (MCF-7 cells [2]): 3.37
CC/C=C\C/C=C\C/C=C\C/C=C\C/C=C\C/C=C\CCC(=O)O [DHA, docosahexaenoic acid]	–	–	cell viability (MCF-7 breast cancer cell): significantly reduced
N.N.[Cl][Pt][Cl] [cisplatin, reference compound]	–	–	EC50 (MCF-7 cells [2]; MTT, 48 h incubation, MCF-7): 0.85 µM; Selectivity Index (SI), MCF-7 (MCF-7 cells [2]): 1.18
